The source of these data is ChEMBL document CHEMBL5126606, “Sodium-Glucose Cotransporter Inhibitors as Antidiabetic Drugs: Current Development and Future Perspectives” (J Med Chem, 2022).

The target in data set [1] is T1, Sodium/glucose cotransporter 2 (Homo sapiens, UniProt P31639).
T1 sequence (P31639 whole entry): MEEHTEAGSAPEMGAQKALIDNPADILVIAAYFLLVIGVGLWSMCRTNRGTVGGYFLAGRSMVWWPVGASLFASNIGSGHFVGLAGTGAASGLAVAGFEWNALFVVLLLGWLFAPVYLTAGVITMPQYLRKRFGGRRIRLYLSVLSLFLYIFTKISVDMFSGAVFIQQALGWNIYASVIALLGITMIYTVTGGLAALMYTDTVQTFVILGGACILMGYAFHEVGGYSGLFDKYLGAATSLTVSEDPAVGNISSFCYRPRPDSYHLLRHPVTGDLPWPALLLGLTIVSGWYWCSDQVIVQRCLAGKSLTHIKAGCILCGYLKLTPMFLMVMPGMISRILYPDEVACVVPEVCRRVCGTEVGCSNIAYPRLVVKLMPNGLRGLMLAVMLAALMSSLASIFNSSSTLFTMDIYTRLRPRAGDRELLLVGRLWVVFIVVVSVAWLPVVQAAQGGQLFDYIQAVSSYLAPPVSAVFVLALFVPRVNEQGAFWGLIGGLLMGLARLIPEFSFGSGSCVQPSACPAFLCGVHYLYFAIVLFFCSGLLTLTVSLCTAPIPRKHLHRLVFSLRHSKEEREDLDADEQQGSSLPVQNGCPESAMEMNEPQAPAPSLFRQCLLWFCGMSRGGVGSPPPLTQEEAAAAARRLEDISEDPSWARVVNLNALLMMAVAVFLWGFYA
The data set can be described thus: Inhibition of recombinant human SGLT2 expressed in COS-7 cells assessed as inhibition of [14C]AMG uptake. The class given is cell-based.

The target of data set [2] is T1, Sodium/glucose cotransporter 2. The data set can be described thus: Inhibition of human SGLT2 expressed in CHO cells assessed as inhibition of [14C] labeled AMG accumulation incubated for 15 mins. The class given is cell-based.
The target of data set [3] is T2, Sodium/glucose cotransporter 1 (Homo sapiens, UniProt P13866).
T2 sequence (P13866 whole entry): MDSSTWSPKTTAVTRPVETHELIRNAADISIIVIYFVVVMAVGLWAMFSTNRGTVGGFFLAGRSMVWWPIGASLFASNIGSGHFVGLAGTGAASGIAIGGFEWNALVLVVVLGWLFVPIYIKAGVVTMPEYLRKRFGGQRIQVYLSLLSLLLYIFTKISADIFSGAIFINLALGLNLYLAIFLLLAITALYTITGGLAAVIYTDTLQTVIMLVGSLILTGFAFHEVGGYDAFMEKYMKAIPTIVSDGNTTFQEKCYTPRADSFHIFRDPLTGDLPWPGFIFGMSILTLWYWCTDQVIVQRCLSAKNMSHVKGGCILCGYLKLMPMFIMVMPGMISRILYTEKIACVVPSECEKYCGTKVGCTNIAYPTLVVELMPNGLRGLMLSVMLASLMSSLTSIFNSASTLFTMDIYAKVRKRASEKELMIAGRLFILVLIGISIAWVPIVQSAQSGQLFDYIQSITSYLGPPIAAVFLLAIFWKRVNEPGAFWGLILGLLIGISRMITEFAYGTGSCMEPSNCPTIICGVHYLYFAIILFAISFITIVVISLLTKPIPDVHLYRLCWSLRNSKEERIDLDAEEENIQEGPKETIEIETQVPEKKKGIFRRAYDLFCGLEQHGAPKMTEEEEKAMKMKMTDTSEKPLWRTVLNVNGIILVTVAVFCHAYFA
The data set can be described thus: Inhibition of human SGLT1 expressed in CHO cells assessed as inhibition of [14C] labeled AMG accumulation incubated for 15 mins. Type of data set: cell-based.

The target in data set [4] is T1, Sodium/glucose cotransporter 2. Put plainly: Inhibition of human SGLT2.
Data set [5] shares this target. Put plainly: Inhibition of human SGLT2 expressed in CHO-K1 cells. Type of data set: cell-based.
The nature of data set [6]: Oral bioavailability in C57BL/6J mouse at 10 mg/kg measured upto 24 hrs by LC-MS/MS analysis. Type of data set: ADME, organism-based. The conditions noted are these: in vivo.
The species named for another data set is Homo sapiens. The data set can be described thus: Selectivity ratio of IC50 for full length N-terminal HA-tagged human SGLT1 expressed in HEK293 cells to IC50 for full length N-terminal HA-tagged human SGLT2 expressed in HEK293 cells. The class given is cell-based.
Data set [7] has as its target T1, Sodium/glucose cotransporter 2. Put plainly: Inhibition of full length N-terminal HA-tagged human SGLT2 expressed in HEK293 cells assessed as inhibition of [14C]AMG uptake. The class given is cell-based.
Data set [8] concerns the target T2, Sodium/glucose cotransporter 1. The data set can be described thus: Inhibition of full length N-terminal HA-tagged human SGLT1 expressed in HEK293 cells assessed as inhibition of [14C]AMG uptake. The class given is cell-based.
The nature of data set [9]: Half life in C57BL/6J mouse at 10 mg/kg,po measured upto 24 hrs by LC-MS/MS analysis. The settings on record: in vivo. Type of data set: ADME, organism-based.
Data set [10] has as its target T1, Sodium/glucose cotransporter 2. The data set can be described thus: Inhibition of human SGLT2 expressed in xenopus oocytes assessed as inhibition of [14C]AMG uptake. The class given is cell-based, Oocyte.

Broadly, the Ki is the equilibrium dissociation constant of an inhibitor or competing ligand from its target. For the molecule `Cc1cc(OCCCNCCC(N)=O)ccc1Cc1c(O[C@@H]2O[C@H](CO)[C@@H](O)[C@H](O)[C@H]2O)n[nH]c1C(C)C`, the Ki in [1] came to 13600 nM. For orientation: EC50 means the concentration needed to bring the measured effect to its halfway point. In the case of `O=C(N/N=C/[C@H]1O[C@@H](n2cc(Cc3ccc(C4CC4)cc3)c3c(Cl)cccc32)[C@H](O)[C@@H](O)[C@@H]1O)c1ccccc1`, the EC50 in data set [2] was 258 nM. As to `CC(=O)NNC[C@H]1O[C@@H](n2cc(Cc3ccc(C4CC4)cc3)c3c(Cl)cccc32)[C@H](O)[C@@H](O)[C@@H]1O`, the EC50 in [2] was 33 nM; in data set [3], 37 nM.

Broadly, the IC50 is the midpoint of a concentration-inhibition curve. `CCOc1ccc(Cc2cc([C@H]3O[C@@H](SC)[C@H](O)[C@@H](O)[C@@H]3O)ccc2Cl)cc1` returned an IC50 in data set [4] of 1.8 nM. Regarding `CO/N=C/[C@H]1O[C@@H](n2cc(Cc3ccc(C4CC4)cc3)c3c(Cl)cccc32)[C@H](O)[C@@H](O)[C@@H]1O`, the EC50 in data set [2] amounted to 286 nM.

For the molecule `O/N=C/[C@H]1O[C@@H](n2cc(Cc3ccc(C4CC4)cc3)c3c(Cl)cccc32)[C@H](O)[C@@H](O)[C@@H]1O`, the EC50 in data set [2] is 212 nM. In [5], `CCOC(=O)OC[C@H]1O[C@@H](Oc2ccccc2Cc2ccc(OC)cc2)[C@H](O)[C@@H](O)[C@@H]1O` [SERGLIFLOZIN ETABONATE] gave a Ki of 151 nM. For orientation: bioavailability means dose-corrected exposure relative to a reference, in per cent. A higher bioavailability goes with much systemic uptake. A word on the half-life: it is how long it takes for the measured level to halve. Lower therefore signals rapid decline. In the case of `COc1ccc(Cc2cc([C@H]3O[C@@H](SC)[C@H](O)[C@@H](O)[C@@H]3O)ccc2Cl)cc1`, the bioavailability in [6] was 87%. The Ratio IC50 in the data set filed under Homo sapiens turned out to be 7.6. Moreover, the IC50 in data set [7] was 2.1 nM; in data set [8], 15.9 nM. This molecule had a half-life in [9] of 7 h.

In the case of `CONC[C@H]1O[C@@H](n2cc(Cc3ccc(C4CC4)cc3)c3c(Cl)cccc32)[C@H](O)[C@@H](O)[C@@H]1O`, the EC50 in data set [2] is 455 nM. On the same count and under the same terms, with `COC(=O)NNC[C@H]1O[C@@H](n2cc(Cc3ccc(C4CC4)cc3)c3c(Cl)cccc32)[C@H](O)[C@@H](O)[C@@H]1O` the figure was 63 nM. With `Cc1cc(O)c(C(=O)CCc2ccc3occc3c2)c(O[C@@H]2O[C@H](CO)[C@@H](O)[C@H](O)[C@H]2O)c1`, the EC50 in data set [10] was determined as 5.2 nM.
